IC50 data for 20 molecules are collected here from patent US20220388992A1, “JAK INHIBITOR COMPOUND AND USE THEREOF” (priority 2019, published 2022).

Assay type in all cases: biochemical
In one experiment the target is T1, TYK2 (Homo sapiens, UniProt P29597).
T1 sequence (P29597 871-1187 limits assumed): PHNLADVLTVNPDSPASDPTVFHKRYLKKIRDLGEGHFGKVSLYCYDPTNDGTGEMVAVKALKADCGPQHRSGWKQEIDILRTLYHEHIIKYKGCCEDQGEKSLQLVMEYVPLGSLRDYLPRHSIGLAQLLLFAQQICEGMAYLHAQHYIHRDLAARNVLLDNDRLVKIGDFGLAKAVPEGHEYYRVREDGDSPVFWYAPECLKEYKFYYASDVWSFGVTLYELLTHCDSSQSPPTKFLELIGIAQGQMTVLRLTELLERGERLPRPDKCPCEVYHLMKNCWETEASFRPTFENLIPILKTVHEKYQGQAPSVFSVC
Put plainly: TYK2 kinase inhibition, ADP-Glo luminescence assay. Conditions: substrate IRS1. An excerpt:
(§1) A drug screening system based on kinases JAK1, JAK2, JAK3, and TYK2 was used to detect the inhibitory ability of small molecule compounds on kinase activity. A kinase undergoes an enzymatic reaction with its substrates IRS 1, IGF1Rtide, and Poly (4:1 Glu, Tyr), consuming ATP to produce ADP, wherein the ADP-Glo reagent and luminescence method were used to detect the amount of the product to reflect the activity of the kinase. 2.1 Experimental Materials and Instruments
(§2) a) Dilute a compound solution to be tested by 5 times with 100% DMSO. […] The final concentration of DMSO is 0.5%. d) Transfer 4 μL of ADP-Glo to the 384-well reaction plate, centrifuge it at 1000 rpm/min for 1 min, and incubate it at 25° C. for 40 min. e) Transfer 8 μL of Detection solution to the 384-well reaction plate, centrifuge it at 1000 rpm/min for 1 min, and incubate it at 25° C. for 40 min. f) Use Biotek multi-function plate reader to read the RLU (Relative luminescence unit) signal. The signal intensity is used to characterize the degree of kinase activity.
(§3) IC50 (half inhibitory concentration) of the compound can be obtained using the following nonlinear fitting formula:
(§4) Y=Bottom+(Top−Bottom)/(1+10^((Log IC50−X)*HillSlope))

In another experiment the target is T2, JAK3 (Homo sapiens, UniProt P52333).
T2 construct: purchased Carna 08-046
Kind of experiment: JAK3 kinase inhibition, ADP-Glo luminescence assay. Particulars: substrate Poly (4:1 Glu, Tyr).
Source text: as §1, §2, §3, §4

Another experiment addresses JAK1 (Homo sapiens, UniProt P23458). Kind of experiment: JAK1 kinase inhibition, ADP-Glo luminescence assay. Particulars: substrate IRS1. The arrangement: purchased Carna 08-144.
Source text: as §1, §2, §3, §4

A further experiment addresses JAK2 (Homo sapiens, UniProt O60674). Put plainly: JAK2 kinase inhibition, ADP-Glo luminescence assay. Particulars: substrate IGF1Rtide. The arrangement: purchased Carna 08-045.
Source text: as §1, §2, §3, §4

T2 sequence (P52333 795-1124 limits assumed): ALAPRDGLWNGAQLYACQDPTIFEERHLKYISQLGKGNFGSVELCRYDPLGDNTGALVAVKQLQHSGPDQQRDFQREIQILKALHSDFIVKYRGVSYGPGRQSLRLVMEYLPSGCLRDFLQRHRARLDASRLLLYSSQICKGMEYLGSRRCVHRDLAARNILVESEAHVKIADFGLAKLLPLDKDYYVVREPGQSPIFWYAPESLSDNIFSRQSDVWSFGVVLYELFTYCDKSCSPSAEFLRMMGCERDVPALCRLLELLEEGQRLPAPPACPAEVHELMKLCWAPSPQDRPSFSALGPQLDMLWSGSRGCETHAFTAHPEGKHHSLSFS
JAK2, sequence (O60674 826-1132 limits assumed): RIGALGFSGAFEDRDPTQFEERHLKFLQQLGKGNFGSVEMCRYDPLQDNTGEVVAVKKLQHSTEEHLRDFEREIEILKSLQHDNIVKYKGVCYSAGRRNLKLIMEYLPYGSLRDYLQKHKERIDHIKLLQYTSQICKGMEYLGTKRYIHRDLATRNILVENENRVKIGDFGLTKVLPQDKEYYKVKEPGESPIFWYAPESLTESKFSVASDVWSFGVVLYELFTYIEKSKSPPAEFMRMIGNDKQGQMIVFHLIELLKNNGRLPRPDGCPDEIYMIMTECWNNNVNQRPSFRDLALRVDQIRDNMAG
JAK1, sequence (P23458 850-1154 limits assumed): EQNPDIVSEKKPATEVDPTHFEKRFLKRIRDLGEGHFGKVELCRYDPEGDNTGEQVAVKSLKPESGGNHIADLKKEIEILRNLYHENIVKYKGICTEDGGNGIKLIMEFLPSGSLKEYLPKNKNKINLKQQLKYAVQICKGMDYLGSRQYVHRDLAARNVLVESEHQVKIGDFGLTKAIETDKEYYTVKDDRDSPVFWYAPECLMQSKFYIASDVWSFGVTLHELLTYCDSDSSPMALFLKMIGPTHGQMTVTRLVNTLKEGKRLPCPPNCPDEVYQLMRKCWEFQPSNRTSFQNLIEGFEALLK

Take `CCc1cc(O)c(F)cc1-c1ccc2c(-c3nc(CNS(=O)(=O)C(C)C)c[nH]3)n[nH]c2c1` [Ex-25, N-((2-(6-(2-ethyl-5-fluoro-4-hydroxyphenyl)-1H-indazol-3-yl)-1H-imidazol-4-yl)methyl)propane-2-sulfonamide]: the IC50 against TYK2 worked out at 7 nM; on JAK3, 2.5 nM; at JAK1 it was 0.4 nM; against JAK2, 2.8 nM.

As for `CCc1cc(O)c(F)cc1-c1ccc2c(-c3nc(CNC(=O)C4CC4)c[nH]3)n[nH]c2c1` [MDI-302, N-((2-(6-(2-ethyl-5-fluoro-4-hydroxyphenyl)-1H-indazol-3-yl)-1H-imidazol-4-yl)methyl)cyclopropanecarboxamide], the IC50 at TYK2 worked out at 12.9 nM; at JAK3, 0.812 nM; on JAK1 it was 0.359 nM; against JAK2, 0.42 nM.

For the molecule `CCc1cc(O)c(F)cc1-c1ccc2c(-c3nc(CNS(C)(=O)=O)c[nH]3)n[nH]c2c1` [MDI-304, N-((2-(6-(2-ethyl-5-fluoro-4-hydroxyphenyl)-1H-indazol-3-yl)-1H-imidazol-4-yl)methyl)methanesulfonamide], the IC50 at TYK2 is 8.26 nM; against JAK3 it was 0.912 nM; against JAK1 it was 0.172 nM; at JAK2, 1.32 nM.

With `CCc1cc(O)c(F)cc1-c1ccc2c(-c3nc(CNC(=O)OCCC#N)c[nH]3)n[nH]c2c1` [Ex-27, 2-cyanoethyl ((2-(6-(2-ethyl-5-fluoro-4-hydroxyphenyl)-1H-indazol-3-yl)-1H-imidazol-4-yl)methyl) carbamate], the IC50 against TYK2 was found to be 9.2 nM; at JAK3 it was 4.4 nM; against JAK1 it was 0.92 nM; against JAK2, 6.3 nM.

Take `CCc1cc(O)c(F)cc1-c1ccc2c(-c3nc(CN4CC5CCC4CC5)c[nH]3)n[nH]c2c1` [Ex-30, 4-(3-(4-((2-azabicyclo[2.2.2]octan-2-yl)methyl)-1H-imidazol-2-yl)-1H-indazol-6-yl)-5-ethyl-2-fluorophenol]: the IC50 was determined as 30 nM against TYK2, 4.5 nM at JAK3, 0.52 nM on JAK1 and 1.8 nM at JAK2.

Turning to `CCc1cc(O)c(F)cc1-c1ccc2c(-c3nc(CN4CCN(CC)CC4)c[nH]3)n[nH]c2c1` [Ex-38, 5-ethyl-4-(3-(4-((4-ethylpiperazin-1-yl)methyl)-1H-imidazol-2-yl)-1H-indazol-6-yl)-2-fluorophenol], the IC50 is 11 nM at TYK2, 2.1 nM against JAK3, 0.1 nM against JAK1 and 1.2 nM against JAK2.

Regarding `CCc1cc(O)c(F)cc1-c1ccc2c(-c3nc(CNC(=O)N4CCOCC4)c[nH]3)n[nH]c2c1` [Ex-36, N-((2-(6-(2-ethyl-5-fluoro-4-hydroxyphenyl)-1H-indazol-3-yl)-1H-imidazol-4-yl)methyl)morpholine-4-carboxamide], the IC50 at TYK2 was 0.83 nM; against JAK3, 0.48 nM; on JAK1, 0.11 nM; against JAK2, 0.55 nM.

As to `CCc1cc(O)c(F)cc1-c1ccc2c(-c3nc(CNC(=O)c4cnn(C)c4)c[nH]3)n[nH]c2c1` [Ex-34, N-((2-(6-(2-ethyl-5-fluoro-4-hydroxyphenyl)-1H-indazol-3-yl)-1H-imidazol-4-yl)methyl)-1-methyl-1H-pyrazole-4-carboxamide], the half-inhibitory concentration (IC50) stood at 1.1 nM against TYK2, 0.5 nM on JAK3, 0.15 nM on JAK1 and 1 nM at JAK2.

In the case of `CCc1cc(O)c(F)cc1-c1ccc2c(-c3nc(CNS(=O)(=O)CC)c[nH]3)n[nH]c2c1` [Ex-19, N-((2-(6-(2-ethyl-5-fluoro-4-hydroxyphenyl)-1H-indazol-3-yl)-1H-imidazol-4-yl)methyl)ethanesulfonamide], the IC50 came to 6.4 nM against TYK2, 2.3 nM against JAK3, 0.33 nM against JAK1 and 3.3 nM on JAK2.

Consider `CCc1cc(O)c(F)cc1-c1ccc2c(-c3nc(CNC(=O)N4CCC(O)CC4)c[nH]3)n[nH]c2c1` [Ex-20, N-((2-(6-(2-ethyl-5-fluoro-4-hydroxyphenyl)-1H-indazol-3-yl)-1H-imidazol-4-yl)methyl)-4-hydroxypiperidine-1-carboxamide], for which the IC50 was determined as 1 nM against TYK2, 0.43 nM at JAK3, 0.1 nM on JAK1 and 0.53 nM against JAK2.

`CCc1cc(O)c(F)cc1-c1ccc2c(-c3nc(CNC(=O)C4CCN(C)C4)c[nH]3)n[nH]c2c1` (centres unmarked) [Ex-29, N-((2-(6-(2-ethyl-5-fluoro-4-hydroxyphenyl)-1H-indazol-3-yl)-1H-imidazol-4-yl)methyl)-1-methylpyrrolidine-3-carboxamide]: the IC50 came to 16.8 nM against TYK2, 9.3 nM on JAK3, 1.1 nM against JAK1 and 13.3 nM at JAK2.

On to `CCc1cc(O)c(F)cc1-c1ccc2c(-c3nc(CNc4cccnc4)c[nH]3)n[nH]c2c1` [Ex-14, 5-ethyl-2-fluoro-4-(3-(4-((pyridin-3-ylamino)methyl)-1H-imidazol-2-yl)-1H-indazol-6-yl)phenol], for which the 50% inhibitory concentration (IC50) came to 9.6 nM on TYK2, 1.6 nM on JAK3, 0.47 nM at JAK1 and 1.2 nM against JAK2.

Regarding `CCc1cc(O)c(F)cc1-c1ccc2c(-c3nc(CNCC4CC4)c[nH]3)n[nH]c2c1` [Ex-17, 4-(3-(4-(((cyclopropylmethyl)amino)methyl)-1H-imidazol-2-yl)-1H-indazol-6-yl)-5-ethyl-2-fluoro phenol], the IC50 worked out at 6.5 nM at TYK2, 2.9 nM against JAK3, 0.36 nM on JAK1 and 1.2 nM against JAK2.

For `CCc1cc(O)c(F)cc1-c1ccc2c(-c3nc(CNC(=O)C(C)C)c[nH]3)n[nH]c2c1` [MDI-303, N-((2-(6-(2-ethyl-5-fluoro-4-hydroxyphenyl)-1H-indazol-3-yl)-1H-imidazol-4-yl)methyl)isobutyramide], the half-maximal inhibitory concentration (IC50) at TYK2 amounted to 6.26 nM; against JAK3, 1.34 nM; against JAK1, 0.43 nM; at JAK2, 0.641 nM.

Turning to `CCc1cc(O)c(F)cc1-c1ccc2c(-c3nc(CNC(=O)N(C)CCO)c[nH]3)n[nH]c2c1` [Ex-16, 3-((2-(6-(2-ethyl-5-fluoro-4-hydroxyphenyl)-1H-indazol-3-yl)-1H-imidazol-4-yl)methyl)-1-(2-hydroxyethyl)-1-methylurea], the IC50 turned out to be 0.97 nM against TYK2, 0.43 nM at JAK3, 0.16 nM against JAK1 and 0.5 nM on JAK2.

For `CCc1cc(O)c(F)cc1-c1ccc2c(-c3nc(CN4CCOCC4)c[nH]3)n[nH]c2c1` [Ex-13, 5-ethyl-2-fluoro-4-(3-(4-(morpholinomethyl)-1H-imidazol-2-yl)-1H-indazol-6-yl)phenol], the IC50 on TYK2 is 11.3 nM; against JAK3, 1.7 nM; against JAK1, 0.48 nM; on JAK2 it was 0.84 nM.

With `CCc1cc(O)c(F)cc1-c1ccc2c(-c3nc(CN(C)C(=O)N4CC[C@@H](O)C4)c[nH]3)n[nH]c2c1` [Ex-21, (R)—N-((2-(6-(2-ethyl-5-fluoro-4-hydroxyphenyl)-1H-indazol-3-yl)-1H-imidazol-4-yl)methyl)-3-hydroxy-N-methylpyrrolidine-1-carboxamide], the half-inhibitory concentration (IC50) against TYK2 was found to be 6.9 nM; against JAK3, 0.64 nM; at JAK1 it was 0.21 nM; at JAK2, 0.72 nM.

With `CCc1cc(O)c(F)cc1-c1ccc2c(-c3nc(CNC(=O)N4CC[C@@H](O)C4)c[nH]3)n[nH]c2c1` [Ex-22, (R)—N-((2-(6-(2-ethyl-5-fluoro-4-hydroxyphenyl)-1H-indazol-3-yl)-1H-imidazol-4-yl)methyl)-3-hydroxypyrrolidine-1-carboxamide], the IC50 came out at 1.1 nM against TYK2, 0.48 nM against JAK3, 0.14 nM against JAK1 and 0.68 nM on JAK2.

Regarding `CCC(=O)NCc1c[nH]c(-c2n[nH]c3cc(-c4cc(F)c(O)cc4CC)ccc23)n1` [MDI-301, N-((2-(6-(2-ethyl-5-fluoro-4-hydroxyphenyl)-1H-indazol-3-yl)-1H-imidazol-4-yl)methyl)propionamide], the IC50 against TYK2 stood at 6.82 nM; at JAK3, 1.13 nM; against JAK1, 0.317 nM; at JAK2, 0.466 nM.

As for `CCc1cc(O)c(F)cc1-c1ccc2c(-c3nc(CNC(=O)c4cnc(N5CCCCC5)cn4)c[nH]3)n[nH]c2c1` [MDI-3, N-((2-(6-(2-ethyl-5-fluoro-4-hydroxyphenyl)-1H-indazol-3-yl)-1H-imidazol-4-yl)methyl)-5-(piperidin-1-yl)pyrazine-2-carboxamide], the IC50 against TYK2 stood at 32.2 nM; against JAK3 it was 1.41 nM; on JAK1 it was 1.96 nM; on JAK2, 1.35 nM.
